Each structure is given as a SMILES string. Entries after “also recorded” stand apart in the source; their conditions may differ.

Experimental findings from patent US10472346B2, “Potent gamma-secretase modulators” (The General Hospital Coporation, priority 2014, dated 2019) are described below.

One assay relates to Aβ42. The experiment in a line: Aβ42 IC50 assay (SHSYSY-APP cell-based screening, UCSD sandwich Aβ42 ELISA). Summed up:
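SHSY5Y-APP cells; secreted Aβ42 quantified by sandwich ELISA to give IC50. Each compound run twice in triplicate on sequential days. Values accepted only when the two runs agree within 3-fold.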

Another assay concerns Notch processing. Nature of the assay: Notch processing in transfected H4-APP751 cells (Western blot, Myc antibody, NICD). The conditions noted are these: H4-APP751 cells transfected with the Notch NδED construct, 40 nM, 200 nM, 1000 nM, and 5000 nM, 24 hrs. Type of assay: cell-based, human. The text has this:
Cells were harvested 48 hrs post transfection and applied to Western blotting analysis. Myc antibody was utilized to assess the NAED and NICD tagged with Myc on their N-termini. β-Actin was utilized as the loading control.
Cells were harvested 48 hrs post transfection and subjected to Western blotting analysis. Myc antibody was utilized to assess the NδED and NICD tagged with Myc on their N-termini.
Stable H4 human neuroglioma cells over-expressing human APP751, or H4-APP751 cells, were transfected with the NAE construct, and then treated with different concentrations SGSM Compound 1 (Lanes 1-6) or DAPT (Lanes 7-10) for another 24 hrs and are shown in FIG. 9. Cells were harvested 48 hrs post transfection and applied to Western blotting analysis. Myc antibody was utilized to assess the NAED and NICD tagged with Myc on their N-termini β-Actin was utilized as the loading control.
Stably-transfected H4 human neuroglioma cells over-expressing human APP751 (H4-APP751) cells, were transfected with the Notch NδED construct, and then treated with vehicle, or different doses of GSMs (40 nM, 200 nM, 1000 nM, and 5000 nM) for 24 hrs. Cells were harvested 48 hrs post transfection and subjected to Western blotting analysis.

Turning to `COc1nc(-c2cc(C)c(N[C@@H](C)c3cc(F)cc(F)c3)nn2)ccc1-n1cnc(C)c1` [Example 46, (S)—N-(1-(3,5-difluorophenyl)ethyl)-6-(6-methoxy-5-(4-methyl-1H-imidazol-1-yl)pyridin-2-yl)-4-methylpyridazin-3-amine], half-maximal inhibition with Aβ42 (IC50) required 4.1 nM. For the same compound, the “Notch processing (NICD levels, Western blot)” value in the assay with Notch processing was “did not decrease the NICD levels at all concentrations studied; also recorded: not inhibit Notch processing”.
